This is an account of results in patent US9546157B2, “Asymmetric piperidinyl-substituted ureas as medicines” (Helsinn Healthcare SA, priority 2014, dated 2017).

Data set [1] addresses T1, GHSR1a (Homo sapiens, UniProt Q92847).
T1 construct: expressed in transfected cells; host or cells: HEK293
Put plainly: Calcium FLIPR assay, GHSR-1a agonism. The format is cell-based. Further details: Emax: unit not given here. The settings on record: HEK293/GHSR1a cells. The method in brief: (§1)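 Calcium dye-loaded HEK293/GHSR1a cells were monitored by FLIPR fluorescence for 2 min after additions at t=20 s. For antagonist mode, compound was co-added with ghrelin (10 nM) and scored by lowering the ghrelin signal. Agonist mode added compound alone; EC50 and IC50 came from dose-response data.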

Data set [2] in a line: Metabolic Stability (H = Human). The format is in vitro ADME.
Data set [3] can be described thus: Metabolic Stability (M = Mouse). In kind it is in vitro ADME.
The target in data set [4] is T1, GHSR1a. Put plainly: Calcium FLIPR assay, GHSR-1a antagonism (reduction of ghrelin response). In kind it is cell-based. The settings on record: HEK293/GHSR1a cells, ghrelin 10 nM. In short, it runs like this: as §1

T1 sequence (Q92847 whole entry): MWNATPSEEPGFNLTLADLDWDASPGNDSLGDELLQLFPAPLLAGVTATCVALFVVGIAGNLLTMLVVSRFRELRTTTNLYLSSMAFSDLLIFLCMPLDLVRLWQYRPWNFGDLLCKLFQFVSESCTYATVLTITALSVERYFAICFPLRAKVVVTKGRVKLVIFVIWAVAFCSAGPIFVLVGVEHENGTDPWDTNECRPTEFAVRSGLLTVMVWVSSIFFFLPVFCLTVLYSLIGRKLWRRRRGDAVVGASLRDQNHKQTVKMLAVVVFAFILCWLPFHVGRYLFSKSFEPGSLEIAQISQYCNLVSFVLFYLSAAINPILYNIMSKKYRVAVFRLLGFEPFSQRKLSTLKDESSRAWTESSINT

For orientation: EC50 means the concentration giving half of the maximal effect. Usually IC50 stands for the concentration that inhibits the measured activity by half. `CC(NC(=O)N(C)C1CCN(C)CC1)c1ccc(-c2ccc(C(N)=O)cc2)c(Cl)c1Cl` (stereo not drawn) [Compound H0615, 2′,3′-dichloro-4′-(1-(3-methyl-3-(1-methylpiperidin-4-yl)ureido)ethyl)-[1,1′-biphenyl]-4-carboxamide]: on GHSR1a [1], the half-maximal effective concentration (EC50) was above 30 µM. In addition, the “Metabolic Stability H” value in data set [2] was “High”. Moreover, the “Metabolic Stability M” value in data set [3] is “Medium”. The IC50 on GHSR1a [4] came out at 0.107 µM.
The corresponding values for `CN1CCC(N(C)C(=O)NC(COCc2cccc(CO)c2)c2ccc(-c3cncnc3)c(Cl)c2Cl)CC1` (stereo not drawn) [Compound H0620, 3-(1-(2,3-dichloro-4-(pyrimidin-5-yl)phenyl)-2-((3-(hydroxymethyl)benzyl)oxy)ethyl)-1-methyl-1-(1-methylpiperidin-4-yl)urea] are above 30 µM, “Poor H Poor M”, “Poor H Poor M” and 0.032 µM.
The corresponding values for `CC(NC(=O)N(C)C1CCN(C)CC1)c1ccc(-c2cnc3[nH]ncc3c2)c(Cl)c1Cl` (stereo not drawn) [Compound H0623, 3-(1-(2,3-dichloro-4-(1H-pyrazolo[3,4-b]pyridin-5-yl)phenyl)ethyl)-1-methyl-1-(1-methylpiperidin-4-yl)urea] are above 30 µM, “Medium”, “Poor” and 0.071 µM.
With `CC(NC(=O)N(O)C1CCN(C)CC1)c1ccc(-c2cccs2)c(Cl)c1Cl` (stereo not drawn) [Compound H0627, 3-(1-(2,3-dichloro-4-(thiophen-2-yl)phenyl)ethyl)-1-hydroxy-1-(1-methylpiperidin-4-yl)urea], on GHSR1a [1], the 50% effective concentration (EC50) was 0.001 µM and the Emax is recorded as 5289. Besides, the “Metabolic Stability H” value in data set [2] is listed as “High H High M”. In data set [3], the “Metabolic Stability M” value is “High H High M”. Further, the IC50 at GHSR1a [4] amounted to 0.004 µM.
As to `CC(NC(=O)N(C)C1CCN(C)CC1)c1ccc(CC#N)c(Cl)c1Cl` (stereo not drawn) [Compound H0630, 3-(1-(2,3-dichloro-4-(cyanomethyl)phenyl)ethyl)-1-methyl-1-(1-methylpiperidin-4-yl)urea], at GHSR1a [1], the EC50 came to 0.009 µM and the Emax is reported as 4714. Further, in data set [2], the “Metabolic Stability H” value is given as “High H High M”. In data set [3], the “Metabolic Stability M” value is “High H High M”. In addition, on GHSR1a [4], the IC50 came to 0.003 µM.
For the molecule `CC(NC(=O)N(C)C1CCN(C)CC1)c1ccc(CO)c(Cl)c1Cl` (stereo not drawn) [Compound H0633, 3-(1-(2,3-dichloro-4-(hydroxymethyl)phenyl)ethyl)-1-methyl-1-(1-methylpiperidin-4-yl)urea], the EC50 on GHSR1a [1] stood at 0.015 µM. For the same molecule, the “Metabolic Stability H” value in data set [2] is listed as “High H High M”. Also, the “Metabolic Stability M” value in data set [3] is given as “High H High M”. Further, at GHSR1a [4], the half-inhibitory concentration (IC50) was found to be 0.003 µM.
For the molecule `CC(NC(=O)N(C)C1CCN(C)CC1)c1ccc(-c2cncc(CO)c2)c(Cl)c1Cl` (stereo not drawn) [Compound H0636, 3-(1-(2,3-dichloro-4-(5-(hydroxymethyl)pyridin-3-yl)phenyl)ethyl)-1-methyl-1-(1-methylpiperidin-4-yl)urea], on GHSR1a [1], the EC50 is above 30 µM. In addition, the “Metabolic Stability H” value in data set [2] is on record as “High”. In addition, the “Metabolic Stability M” value in data set [3] is on record as “Medium”. On GHSR1a [4], the IC50 worked out at 0.09 µM.
The corresponding values for `CC(NC(=O)N(C)C1CCN(C)CC1)c1ccc(-c2cncc(C(F)F)c2)c(Cl)c1Cl` (stereo not drawn) [Compound H0637, 3-(1-(2,3-dichloro-4-(5-(difluoromethyl)pyridin-3-yl)phenyl)ethyl)-1-methyl-1-(1-methylpiperidin-4-yl)urea] are above 30 µM, “Medium H Medium M”, “Medium H Medium M” and 0.085 µM.
The corresponding values for `CC(NC(=O)N(C)C1CCN(C)CC1)c1ccc(-c2cncc(C=O)c2)c(Cl)c1Cl` (stereo not drawn) [Compound H0642, 3-(1-(2,3-dichloro-4-(5-formylpyridin-3-yl)phenyl)ethyl)-1-methyl-1-(1-methylpiperidin-4-yl)urea] are above 30 µM, “Very low”, “Very Low” and 0.078 µM.
As for `CN1CCC(N(C)C(=O)NC(C#N)c2ccc(-c3ccsc3)c(Cl)c2Cl)CC1` (stereo not drawn) [Compound H0644, 3-(cyano(2,3-dichloro-4-(thiophen-3-yl)phenyl)methyl)-1-methyl-1-(1-methylpiperidin-4-yl)urea], on GHSR1a [1], the concentration for a half-maximal effect (EC50) came out at 0.028 µM and the Emax worked out at 2822. Moreover, the “Metabolic Stability H” value in data set [2] is reported as “Medium H Medium M”. For the same molecule, the “Metabolic Stability M” value in data set [3] is given as “Medium H Medium M”. Also, the 50% inhibitory concentration (IC50) at GHSR1a [4] amounted to 0.006 µM.
On to `CC(NC(=O)N(C)C1CCN(C)CC1)c1ccc(-c2ccc(CO)s2)c(Cl)c1Cl` (stereo not drawn) [Compound H0653, 3-(1-(2,3-dichloro-4-(5-(hydroxymethyl)thiophen-2-yl)phenyl)ethyl)-1-methyl-1-(1-methylpiperidin-4-yl)urea], for which, at GHSR1a [1], the EC50 was 0.009 µM and the Emax is 1815. Further, in data set [2], the “Metabolic Stability H” value is reported as “Medium H Medium M”. The “Metabolic Stability M” value in data set [3] was “Medium H Medium M”. In addition, the IC50 at GHSR1a [4] was 0.004 µM.
As to `CC(NC(=O)N(C)C1CCN(C)CC1)c1ccc(-c2ccc(C(F)F)s2)c(Cl)c1Cl` (stereo not drawn) [Compound H0654, 3-(1-(2,3-dichloro-4-(5-(difluoromethyl)thiophen-2-yl)phenyl)ethyl)-1-methyl-1-(1-methylpiperidin-4-yl)urea], at GHSR1a [1], the EC50 came to 0.01 µM and the Emax was 2200. In data set [2], the “Metabolic Stability H” value is given as “High”. Besides, the “Metabolic Stability M” value in data set [3] is on record as “Medium”. In addition, the IC50 on GHSR1a [4] was 0.006 µM.
Regarding `CC(O)c1ccc(-c2ccc(C(C)NC(=O)N(C)C3CCN(C)CC3)c(Cl)c2Cl)s1` (stereo not drawn) [Compound H0656, 3-(1-(2,3-dichloro-4-(5-(1-hydroxyethyl)thiophen-2-yl)phenyl)ethyl)-1-methyl-1-(1-methylpiperidin-4-yl)urea], at GHSR1a [1], the EC50 was determined as 0.015 µM and the Emax is on record as 1350. Moreover, in data set [2], the “Metabolic Stability H” value is “Medium H Medium M”. For the same molecule, in data set [3], the “Metabolic Stability M” value is “Medium H Medium M”. In addition, the half-maximal inhibitory concentration (IC50) at GHSR1a [4] was found to be 0.007 µM.
For the molecule `Cc1ccc(-c2ccc(C(C)NC(=O)N(C)C3CCN(C)CC3)c(Cl)c2Cl)o1` (stereo not drawn) [Compound H0665, 3-(1-(2,3-dichloro-4-(5-methylfuran-2-yl)phenyl)ethyl)-1-methyl-1-(1-methylpiperidin-4-yl)urea], at GHSR1a [1], the EC50 amounted to 0.008 µM. The “Metabolic Stability H” value in data set [2] was “High”. Also, in data set [3], the “Metabolic Stability M” value is on record as “Medium”. Moreover, on GHSR1a [4], the IC50 was found to be 0.004 µM.
The corresponding values for `CC(=O)C#Cc1ccc(C(C)NC(=O)N(C)C2CCN(C)CC2)c(Cl)c1Cl` (stereo not drawn) [Compound H0701, 3-(1-(2,3-dichloro-4-(3-oxobut-1-yn-1-yl)phenyl)ethyl)-1-methyl-1-(1-methylpiperidin-4-yl)urea] are above 30 µM, “Low H Low M”, “Low H Low M” and 0.02 µM.
In the case of `CC(NC(=O)N(C)C1CCN(C)CC1)c1ccc(-c2cncc(C3=CCCC3)c2)c(Cl)c1Cl` (stereo not drawn) [Compound H0705, 3-(1-(2,3-dichloro-4-(5-(cyclopent-1-en-1-yl)pyridin-3-yl)phenyl)ethyl)-1-methyl-1-(1-methylpiperidin-4-yl)urea], the half-maximal effective concentration (EC50) on GHSR1a [1] is above 30 µM. Moreover, the “Metabolic Stability H” value in data set [2] was “High H High M”. Moreover, the “Metabolic Stability M” value in data set [3] is on record as “High H High M”. At GHSR1a [4], the half-inhibitory concentration (IC50) was determined as 0.053 µM.
Regarding `CC(NC(=O)N(C)C1CCN(C)CC1)c1ccc(-c2cncc(-c3cncs3)c2)c(Cl)c1Cl` (stereo not drawn) [Compound H0716, 3-(1-(2,3-dichloro-4-(5-(thiazol-5-yl)pyridin-3-yl)phenyl)ethyl)-1-methyl-1-(1-methylpiperidin-4-yl)urea], the EC50 on GHSR1a [1] is above 30 µM. The “Metabolic Stability H” value in data set [2] is “Low”. Moreover, the “Metabolic Stability M” value in data set [3] is reported as “Medium”. In addition, the half-maximal inhibitory concentration (IC50) on GHSR1a [4] was determined as 0.015 µM.
With `CN1CCC(N(C)C(=O)NC(CC2CC2)c2ccc(-c3cccnc3)c(Cl)c2Cl)CC1` (stereo not drawn) [Compound H0720, 3-(2-cyclopropyl-1-(2,3-dichloro-4-(pyridin-3-yl)phenyl)ethyl)-1-methyl-1-(1-methylpiperidin-4-yl)urea], at GHSR1a [1], the 50% effective concentration (EC50) was above 30 µM. Further, the “Metabolic Stability H” value in data set [2] was “Medium”. Besides, the “Metabolic Stability M” value in data set [3] is recorded as “High”. Besides, the half-maximal inhibitory concentration (IC50) on GHSR1a [4] is 0.008 µM.
Taken in the same sequence, the figures for `CN1CCC(N(C)C(=O)NC(CC2CC2)c2ccc(-c3cncc(N)c3)c(Cl)c2Cl)CC1` (stereo not drawn) [Compound H0721, 3-(1-(4-(5-aminopyridin-3-yl)-2,3-dichlorophenyl)-2-cyclopropylethyl)-1-methyl-1-(1-methylpiperidin-4-yl)urea] were above 30 µM, “Medium”, “High” and 0.02 µM.
Taken in the same sequence, the figures for `CN1CCC(N(C)C(=O)NC(CC2CC2)c2ccc(-c3ccc(C(N)=O)s3)c(Cl)c2Cl)CC1` (stereo not drawn) [Compound H0728, 5-(2,3-dichloro-4-(2-cyclopropyl-1-(3-methyl-3-(1-methylpiperidin-4-yl)ureido)ethyl)phenyl)thiophene-2-carboxamide] were above 30 µM, “Medium H Medium M”, “Medium H Medium M” and 0.005 µM.
In the case of `CCC(NC(=O)N(C)C1CCN(C)C1)c1ccc(-c2cnccn2)c(Cl)c1Cl` (stereo not drawn) [Compound H0857, 3-(1-(2,3-dichloro-4-(pyrazin-2-yl)phenyl)propyl)-1-methyl-1-(1-methylpyrrolidin-3-yl)urea], the half-maximal effective concentration (EC50) at GHSR1a [1] was above 30 µM. The “Metabolic Stability H” value in data set [2] was “Medium”. The “Metabolic Stability M” value in data set [3] is “Low”. Also, the IC50 on GHSR1a [4] was 0.01 µM.
